Results taken from article PMC6412019, “Discovery of NV-5138, the first selective Brain mTORC1 activator” (Scientific Reports, 2019).
Several values for one entry are separate records, joined by “and”; a condition that tells them apart may be missing. Identical values can stand only once. Entries after “also recorded” stand apart in the source; their conditions may differ.

Key:
mTORC1 [1] = assay: mTORC1 activation in rat brain after oral dosing (phosphorylated S6 S240/244 immunoblot); assay type: in vivo; details: for mTORC1 activation in brain (pS6 increase): 1 h after single oral dose, NV-5138 160 mg/kg, leucine 500 mg/kg; for increase in S240/244 pS6 versus vehicle: synaptoneurosomes from pre-frontal cortex
Source text: Given the favorable PK properties of NV-5138, we wished to determine whether oral administration of NV-5138 could activate mTORC1 in the brain and other organs of ad libitum fed rats using the mTORC1 downstream substrate phosphorylated S6 (^S240/244pS6) as a surrogate PD parameter for the activation status of the complex.
After compound administration, animals were sacrificed by decapitation using a guillotine, immediately Specific regions of the brain were quickly microdissected, tissues collected, and flash frozen in liquid nitrogen. Peripheral tissues and all brain were homogenized using MP homogenizer in Lysis Buffer (Cell lysis buffer: 1% Triton X-100, 50 mM HEPES pH 7.4, 100 mM NaCl, 2 mM EDTA, 10 mM Beta-glycerophosphate, 10 mM Sodium pyrophosphate, and 1 protease inhibitor) at 4 °C. Synaptic proteins and mTORC1 analyses in each brain region were conducted on crude synaptoneurosome preparations as previously described. Equal amounts of total protein from each sample were denatured and, resolved by SDS-PAGE. Membranes were imaged using the LI-COR imaging system. Proteins levels are normalized to tubulin or GAPDH levels and further normalized to vehicle treated rats for each tissue. Antibodies used are listed in Supplementary Information.

BCAT1 = target: T1, BCAT1 (Homo sapiens, UniProt P54687); assay: BCAT enzymatic assay (substrate test), BCAT1; assay type: biochemical; details: NADH oxidation at 340 nm; tested up to 1.5 mM
T1 construct: purchased OriGene TP319229
T1 sequence (P54687 1-386): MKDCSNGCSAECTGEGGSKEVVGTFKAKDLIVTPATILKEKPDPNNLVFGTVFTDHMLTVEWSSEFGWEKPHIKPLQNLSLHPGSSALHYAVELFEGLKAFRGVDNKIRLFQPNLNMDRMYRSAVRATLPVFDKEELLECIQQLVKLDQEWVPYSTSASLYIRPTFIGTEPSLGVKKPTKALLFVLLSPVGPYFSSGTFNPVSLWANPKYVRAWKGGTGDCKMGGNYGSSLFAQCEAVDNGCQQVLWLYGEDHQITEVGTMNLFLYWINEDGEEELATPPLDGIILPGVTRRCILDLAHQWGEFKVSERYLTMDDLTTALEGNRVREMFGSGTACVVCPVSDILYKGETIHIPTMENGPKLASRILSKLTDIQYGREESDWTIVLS
Method: BCAT exists in two isoforms, mitochondrial BCAT2 which is ubiquitously expressed, and cytosolic BCAT1, which is predominantly expressed in embryonic tissues and the adult brain. To determine whether NV-5138 is a substrate for BCAT isoforms, we established an in vitro enzymatic assay using purified BCAT1 and BCAT2 and performed the assay in the forward direction as described. […] The disappearance of absorbance at 340 nm due to NADH oxidation is measured continuously over time.
The assay buffer was dispensed into a 96-well plate and brought up to 37 °C for 10 min before adding BCAT1 or BCAT2 (72 ng) in 0.1 M potassium phosphate buffer. Absorbance at 340 nm was then read every minute for 30 min at RT using an Envision plate reader. Source of each reagents used can be found in Supplementary Information.

mTORC1 [2] = assay: mTORC1 activation (phosphorylated S6K1 Thr389 immunoblot) in leucine-starved HEK-293T cells; assay type: cell-based, human
Method: Expression of flag-WDR24 allows for immunoprecipitation of the Sestrin2/GATOR2 complex from amino acid-starved cells with an anti-flag antibody. […] Finally, to determine whether Sestrins and the GATOR pathway are required for NV-5138 activity, HEK-293T cells null for all three Sestrin isoforms or the GATOR1 component Nprl3 were obtained.
All cell lines were cultured in DMEM supplemented with 10% FBS and maintained at 37 °C and 5% CO2. HEK-293T cells stably expressing Flag-WDR24 was generated as previously described. […] Details of reagent used for cell culture can be found in Supplementary Information.
Cell lysates were prepared as previously described. Lysates were cleared by centrifugation at 13,200 rpm at 4 °C for 8 min. For anti-FLAG IPs, the FLAG-M2 affinity gel was added to approximately 2 mg of lysates and incubated with rotation for 3 h at 4 °C. Following IP, the beads were washed one time with Triton wash buffer containing 500 mM NaCl. […] After compound incubation, IPs were collected by centrifugation. Immunoprecipitated proteins were denatured and, resolved by SDS-PAGE. Membranes were imaged using the LI-COR imaging system. Reagents and antibodies used are listed in Supplementary Information.

Sestrin2 = target: T2, Sestrin2 (Homo sapiens, UniProt P58004); assay: Isothermal titration calorimetry (ITC) on Sestrin2; assay type: binding; design: Full-length, codon-optimized human Sestrin2 was cloned into a pMAL6H -C5XT bacterial expression vector; His6-MBP (TEV-cleavable) (N, cleaved yes); made in house; host or cells: Escherichia coli LOBSTR (DE3); details: for Kd: estimated, Sestrin2 pre-exchanged with methionine
T2 sequence (P58004 1-480): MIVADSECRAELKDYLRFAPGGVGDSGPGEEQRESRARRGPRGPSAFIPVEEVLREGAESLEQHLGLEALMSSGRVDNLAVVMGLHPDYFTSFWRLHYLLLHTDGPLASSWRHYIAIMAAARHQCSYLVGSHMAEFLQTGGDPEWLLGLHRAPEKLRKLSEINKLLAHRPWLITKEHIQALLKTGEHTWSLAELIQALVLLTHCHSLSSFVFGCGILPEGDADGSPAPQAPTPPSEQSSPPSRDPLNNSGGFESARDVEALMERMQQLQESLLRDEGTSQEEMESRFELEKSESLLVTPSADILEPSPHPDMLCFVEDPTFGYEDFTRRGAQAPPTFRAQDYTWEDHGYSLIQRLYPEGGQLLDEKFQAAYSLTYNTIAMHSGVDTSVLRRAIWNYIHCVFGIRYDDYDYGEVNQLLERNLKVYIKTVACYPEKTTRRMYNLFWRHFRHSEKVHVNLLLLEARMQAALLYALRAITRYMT
Method: Details of NV-5138 synthesis and protein preparation for ITC can be found in Supplementary Information.
For this exchange procedure ion exchange chromatography was used using the following buffers:
Buffer-A: HEPES 20mM pH 7.4, βME 5mM, Buffer-B: HEPES 20mM pH 7.4, βME 5mM, Methionine 5mM, Buffer-C: HEPES 20mM pH 7.4, βME 5mM, NaCl 1M. Sestrin2 (6 mg) was diluted to 5ml with buffer-A, and loaded on a MonoQ HR 5/50 column equilibrated in buffer-A. The column was washed with 2-3 column volume (CV) of buffer-A followed by 130 ml of buffer-B. The protein was then eluted in steps of 300 mM, 500 mM, and 1 M NaCl in buffer-C. The protein eluted in the 300 mM NaCl fractions and was concentrated to 7.6 mg/ml.

[3] = 160 mg/kg PO, 1 h, synaptoneurosomes

| SMILES | mTORC1 activation in brain (pS6 increase) (mTORC1 [1]; ad libitum fed rats) | transamination by BCAT1 (BCAT1) | mTORC1 activation (pS6K1) (mTORC1 [2]; leucine-starved HEK-293T cells null for all three Sestrin isoforms) | mTORC1 activation (pS6K1) (mTORC1 [2]; leucine-starved HEK-293T cells null for the GATOR1 component Nprl3) | molar stoichiometry (ITC) (Sestrin2) | Kd (Sestrin2) | mTORC1 activation in cerebellum (mTORC1 [1]; [3]) | mTORC1 activation in striatum, hippocampus, neocortex (mTORC1 [1]; [3]) | time of peak mTORC1 activation in brain (mTORC1 [1]; single 160 mg/kg PO) | time until mTORC1 activation back to baseline/vehicle levels (mTORC1 [1]; single 160 mg/kg PO) [h] | increase in S240/244 pS6 versus vehicle (mTORC1 [1]; 1 h after 80 mg/kg PO) | increase in S240/244 pS6 versus vehicle (mTORC1 [1]; 1 h after 160 mg/kg PO, ad libitum fed rats) | mTORC1 activation (pS6K1) (mTORC1 [2]; leucine-starved unedited HEK-293T cells) |
| --- | --- | --- | --- | --- | --- | --- | --- | --- | --- | --- | --- | --- | --- |
| CC(C)C[C@H](N)C(=O)O [Leucine, L-leucine, reference compound] | no activation | transaminated by BCAT1 and BCAT2 | refractory | refractory | 1 | 1.6 µM and 1.55 µM | – | – | – | – | – | – | – |
| CC(C)(C[C@H](N)C(=O)O)C(F)F [NV-5138, (S)-2-amino-5,5-difluoro-4,4-dimethylpentanoic acid] | ~ 2 fold | no decrease in absorption at 340 nm; also recorded: did not observe any transamination | – | – | – | 1.5 µM and 1.49 µM | but not the cerebellum | significant activation | ~ 3 h | ≤ 7 | trending increase | ~ 2 fold | activates mTORC1 |
